The target in experiment [1] is ROCK 1 (Homo sapiens, UniProt Q13464). Kind of experiment: Inhibition of Rho kinase ROCK 1 (Tables 2.1-2.4). Type of experiment: biochemical. The method, then: (§1) Inhibitory activity for Rho kinase was determined for examples of compounds of the present invention. Inhibition of Rho kinase can be assayed as described. For each of these compounds their inhibitory activity for both ROCK1 and ROCK2 was determined.
(§2) The IC50 values (in μM) for each of these compounds show a selectivity for inhibiting ROCK2.

Experiment [2] deals with ROCK 2 (Homo sapiens, UniProt O75116). Kind of experiment: Inhibition of Rho kinase ROCK 2 (Tables 2.1-2.4). In kind it is biochemical. The method, then: as §1, §2
ROCK 2, sequence (O75116 whole entry, species assumed): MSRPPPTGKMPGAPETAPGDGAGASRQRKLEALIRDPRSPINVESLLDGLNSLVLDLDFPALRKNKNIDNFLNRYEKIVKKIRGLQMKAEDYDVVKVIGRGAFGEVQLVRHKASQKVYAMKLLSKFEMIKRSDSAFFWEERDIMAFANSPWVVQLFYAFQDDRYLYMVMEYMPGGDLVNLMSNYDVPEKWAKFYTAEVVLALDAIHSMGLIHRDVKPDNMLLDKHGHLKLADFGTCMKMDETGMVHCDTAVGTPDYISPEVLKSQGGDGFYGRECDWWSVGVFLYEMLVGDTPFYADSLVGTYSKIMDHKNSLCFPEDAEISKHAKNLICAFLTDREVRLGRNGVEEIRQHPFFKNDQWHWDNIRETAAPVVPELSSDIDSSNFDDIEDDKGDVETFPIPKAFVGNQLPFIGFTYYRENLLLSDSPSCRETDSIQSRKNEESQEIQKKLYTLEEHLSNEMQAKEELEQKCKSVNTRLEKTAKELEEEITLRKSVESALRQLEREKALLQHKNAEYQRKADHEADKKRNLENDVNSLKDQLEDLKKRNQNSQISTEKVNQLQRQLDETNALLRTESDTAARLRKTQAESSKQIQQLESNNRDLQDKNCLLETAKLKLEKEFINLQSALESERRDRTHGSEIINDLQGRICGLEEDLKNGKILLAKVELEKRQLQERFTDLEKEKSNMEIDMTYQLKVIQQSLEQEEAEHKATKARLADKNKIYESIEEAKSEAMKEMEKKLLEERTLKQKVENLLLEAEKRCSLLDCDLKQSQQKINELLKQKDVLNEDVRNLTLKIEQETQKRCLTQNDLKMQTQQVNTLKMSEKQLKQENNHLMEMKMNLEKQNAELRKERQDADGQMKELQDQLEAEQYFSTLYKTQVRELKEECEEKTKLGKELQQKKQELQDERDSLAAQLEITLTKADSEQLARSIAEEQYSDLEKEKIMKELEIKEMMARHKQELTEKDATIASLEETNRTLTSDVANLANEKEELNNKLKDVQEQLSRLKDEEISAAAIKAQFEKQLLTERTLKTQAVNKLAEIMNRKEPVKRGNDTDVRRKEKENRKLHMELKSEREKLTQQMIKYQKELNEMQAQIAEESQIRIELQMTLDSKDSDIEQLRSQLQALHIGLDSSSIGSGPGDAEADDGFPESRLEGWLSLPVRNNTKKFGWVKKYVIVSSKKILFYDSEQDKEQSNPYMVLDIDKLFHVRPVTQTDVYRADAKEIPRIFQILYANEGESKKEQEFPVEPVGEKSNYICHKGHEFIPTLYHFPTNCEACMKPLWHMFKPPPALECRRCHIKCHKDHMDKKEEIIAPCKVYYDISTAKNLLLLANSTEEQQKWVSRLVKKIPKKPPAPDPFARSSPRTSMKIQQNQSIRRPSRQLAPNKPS
Experiment [3] can be described thus: Attenuation of weight gain in Leptin deficient (ob−/ob−) mice, low fat or high fat diet. In kind it is in vivo. The procedure: The effect of SLx-2119 on weight gain in Leptin deficient (ob^−/ob^−) mice fed a low fat (normal) or high fat diet was also measured. […] The leptin deficient mice gained considerably more weight than normal 057BL/6 mice fed the low fat diet.
The leptin deficient mice consuming the high fat diet gained weigh at about four times the rate of normal mice on a low fat diet. […] As with the low fat diet, caloric intake was quite a bit higher in the ob^−/ob^− mice, whether or not they received SLx-2119. (FIG. 23).

A short description of experiment [4]: Attenuation of hyperinsulinemia in Leptin deficient (ob−/ob−) mice. In kind it is in vivo. The source says: Leptin deficient (ob^−/ob^−) mice were maintained on a normal (control), or a high fat diet with or without SLx-2119. […] Attenuation of hyperinsulinemia was similarly observed in ob^−/ob^− mice maintained on a low fat diet (FIG. 26).
Experiment [5] is described as follows: Glucose tolerance in C57BL/6 mice after 54 days on diet. As to conditions: high fat diet with compound, meal after overnight fast, FIG. 14. In kind it is in vivo. The source says: Separate groups of C57BL/6 mice were fed as above, and evaluated for glucose tolerance after 54 days. All mice were fed the same meal |what is the meal| after an overnight fast. […] (FIG. 14)

A short description of experiment [6]: Attenuation of weight gain, C57BL/6 mice consuming a high fat diet. In kind it is in vivo. The method, then: The ability of SLx-2119 to limit weight gain was evaluated by administration to C57BL/6, ApoE knockout, and leptin deficient mice as part of a high fat or low fat diet.
Three groups of 10 mice each were initially fed a control diet for a week. Two groups were then switched to a high fat diet in which 42% of the calories were from fat. SLx-2119 was included in the diet of one of the two groups. The third group continued on the control diet. Fasting glucose levels were measured during the first week (all groups consuming the control diet), and again during the third and sixth week.

Experiment [7] is described as follows: Body weight of rats fed a low fat diet. Type of experiment: in vivo. The text has this: The effect of SLx-2119 supplementation on body weight of rats fed a low fat diet was also investigated.
Experiment [8] can be described thus: Fasting insulin and glucose levels in ApoE (−/−) and C57BL/6 mice on high fat diet. Type of experiment: in vivo. The source says: (§3) In a different experiment, ApoE (−/−) deficient mice were compared with C57BL/6 mice. All mice were initially fed a control diet for one week, and a high fat diet for the following 11 weeks. At the start of the fourth week, half of the C57BL/6 mice and half of the ApoE (−/−) mice were supplemented with 0.1% SLx-2119 in the diet.
The reductions in fasting insulin levels were accompanied by reductions in fasting blood glucose levels. (FIG. 18, bottom).

Experiment [9] can be described thus: Attenuation of weight gain in ApoE (−/−) and C57BL/6 mice on high fat diet. In kind it is in vivo. The settings on record: 0.1% in the diet from the fourth week, FIG. 15.
From the text: as §3

The subject of experiment [10] is ROCK2. The experiment is described as follows: Inhibition of phosphorylation of S6 Long Peptide by ROCK1 and ROCK2 (33P filter assay), selective inhibition of ROCK2. Type of experiment: biochemical. The method, then: Filtration was done in 96 well filter plates containing phosphocellulose cation exchange paper (Millipore, Cat#MAPHNOBIO).
The reaction was incubated for 40 minutes at room temperature and stopped with 25 ul 3% phosphoric acid. Reaction was then transferred to a filter plate wet with 75 mM phosphoric acid. The plate was then washed three times with 75 mM phosphoric acid and once with methanol. […] IC50 values were determined using Graphpad Prism.

A value given as a limit tells only on which side of the number the result lay.

Results on 10 compounds are retold here after patent US20120202793A1, “RHO KINASE INHIBITORS” (priority 2009, published 2012).

ROCK 1, sequence (Q13464 whole entry, species assumed): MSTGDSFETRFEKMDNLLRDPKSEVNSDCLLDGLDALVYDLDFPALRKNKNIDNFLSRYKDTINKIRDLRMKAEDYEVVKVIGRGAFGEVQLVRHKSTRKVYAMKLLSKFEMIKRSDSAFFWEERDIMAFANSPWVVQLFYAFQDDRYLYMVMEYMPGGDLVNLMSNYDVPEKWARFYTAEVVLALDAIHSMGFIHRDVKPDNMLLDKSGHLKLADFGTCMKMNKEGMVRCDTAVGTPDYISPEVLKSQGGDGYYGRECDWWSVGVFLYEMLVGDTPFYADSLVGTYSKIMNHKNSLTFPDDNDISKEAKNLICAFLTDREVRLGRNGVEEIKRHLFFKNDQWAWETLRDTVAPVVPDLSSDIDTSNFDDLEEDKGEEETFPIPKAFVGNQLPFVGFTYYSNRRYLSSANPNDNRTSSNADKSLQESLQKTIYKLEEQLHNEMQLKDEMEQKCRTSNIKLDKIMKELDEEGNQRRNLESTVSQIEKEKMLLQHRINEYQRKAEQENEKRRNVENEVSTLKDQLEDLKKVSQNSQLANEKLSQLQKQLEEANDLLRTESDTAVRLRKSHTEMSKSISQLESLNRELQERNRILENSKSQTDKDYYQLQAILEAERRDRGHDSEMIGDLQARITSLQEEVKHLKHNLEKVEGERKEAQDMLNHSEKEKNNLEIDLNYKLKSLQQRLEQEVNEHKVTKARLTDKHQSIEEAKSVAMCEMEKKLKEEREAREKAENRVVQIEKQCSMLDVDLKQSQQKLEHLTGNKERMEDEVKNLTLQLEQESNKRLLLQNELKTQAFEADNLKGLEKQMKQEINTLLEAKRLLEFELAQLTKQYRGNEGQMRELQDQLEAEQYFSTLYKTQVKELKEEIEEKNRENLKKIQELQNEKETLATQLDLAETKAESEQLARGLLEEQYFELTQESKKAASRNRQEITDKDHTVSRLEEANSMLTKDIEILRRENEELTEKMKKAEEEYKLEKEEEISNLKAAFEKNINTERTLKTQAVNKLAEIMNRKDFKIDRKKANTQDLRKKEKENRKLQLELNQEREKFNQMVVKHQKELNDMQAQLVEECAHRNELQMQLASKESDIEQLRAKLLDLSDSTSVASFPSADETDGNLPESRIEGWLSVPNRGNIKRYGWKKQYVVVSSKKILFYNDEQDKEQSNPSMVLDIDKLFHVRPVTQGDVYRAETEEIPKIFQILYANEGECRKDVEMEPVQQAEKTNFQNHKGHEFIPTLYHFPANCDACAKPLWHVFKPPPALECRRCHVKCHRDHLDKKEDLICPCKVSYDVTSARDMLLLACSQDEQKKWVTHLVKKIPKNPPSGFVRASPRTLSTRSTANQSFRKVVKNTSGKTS

Take `NC(=O)COc1cccc(-c2nc(Nc3ccc4[nH]ncc4c3)c3ccccc3n2)c1` [Example 84, 2-(3-(4-(1H-indazol-5-ylamino)quinazolin-2-yl)phenoxy)acetamide]: the IC50 (in general, the point on the concentration scale where inhibition reaches its midpoint) in experiment [1] was 2.6 µM; in experiment [2], 0.52 µM.

As to `CC(=O)Oc1cccc(-c2nc(Nc3ccc4[nH]ncc4c3)c3ccccc3n2)c1` [Example 272], the IC50 in [1] was more than 10 µM; in [2], 0.57 µM.

As to `CCCC(=O)Nc1cccc(-c2nc(Nc3ccc4[nH]ncc4c3)c3ccc(OCCOC)cc3n2)c1` [Example 263], the IC50 in experiment [1] was more than 3 µM; in experiment [2] it was 0.09 µM.

For `COc1cc2nc(-c3cccc(NC(=O)CN4CCOCC4)c3)nc(Nc3ccc4[nH]ncc4c3)c2cc1OCCN1CCCC1` [Example 167, N-(3-(4-(1H-Indazol-5-ylamino)-7-methoxy-6-(2-(pyrrolidin-1-yl)ethoxy)quinazolin-2-yl)phenyl)-2-morpholinoacetamide], the IC50 is more than 3 µM in experiment [1] and 0.06 µM in [2].

`CCCC(=O)Nc1cccc(-c2nc(Nc3ccc4[nH]ncc4c3)c3cc(OCCN(C)C)ccc3n2)c1` [Example 141, N-(3-(4-(1H-indazol-5-ylamino)-6-(2-(dimethylamino)ethoxy)quinazolin-2-yl)phenyl)butyramide]: the values for the IC50 in experiment [1] and in experiment [2] were more than 1 µM and 0.04 µM, respectively.

With `O=C(COc1cccc(-c2nc(Nc3ccc4[nH]ncc4c3)c3ccccc3n2)c1)Nc1cccnc1` [Example 55, 2-(3-(4-(1H-indazol-5-ylamino)quinazolin-2-yl)phenoxy)-N-(pyridin-3-yl)acetamide], the IC50 in experiment [1] is more than 10 µM; in experiment [2], 0.09 µM.

As to `CC(C)NC(=O)COc1cccc(-c2nc(Nc3ccc4[nH]ncc4c3)c3ccccc3n2)c1` [SLx-2119], the weight gain entry is recorded as “no distinguishable effect” in [3] (normal C57BL/6 mice, low fat diet, FIG. 19); “reduced by half” in experiment [3] (ob−/ob− mice, high fat diet, FIG. 22); “gained only half as much weight” in [3] (ob−/ob− mice, low fat diet, versus ob−/ob− mice without compound, FIG. 19); “not distinguishable from the control mice” in [6] (high fat diet (42% of calories from fat) supplemented with compound, versus control diet mice, FIG. 11). Moreover, the “fasting blood glucose levels” value was “reduced to normal levels” in [4] (high fat diet, FIG. 25); “reductions” in [8] (C57BL/6 and ApoE (−/−) mice, FIG. 18 bottom). Also, the fasting insulin levels result in experiment [4] (high fat diet, FIG. 25) is “significantly reduced”; in experiment [8] (normal C57BL/6 mice, FIG. 18 top) it was “reduction”. Besides, the hyperinsulinemia result in experiment [4] (low fat diet, FIG. 26) is listed as “Attenuation”. The “glucose levels following feeding” value in experiment [5] is reported as “increased relative to mice maintained on the control diet, but not as high as in mice that did not receive SLx-2119”. For the same compound, the “recovery of glucose levels” value in [5] was “quickly recovered to a normal level”. The “average caloric intake of untreated high fat diet mice relative to control and treated groups” value in [6] (high fat diet, FIG. 12) was “only slightly higher”. For the same compound, the “reduction of body weight gain” value in experiment [7] (FIG. 27) was “about 6%”. Moreover, in [7] (FIG. 28), the caloric intake entry is listed as “little or no change”. Further, the “weight gain less than in mice that did not receive the supplement” value in experiment [9] (ApoE (−/−) mice) is 50%; in experiment [9] (C57BL/6 mice) it was 33%.

`CCCC(=O)Nc1cccc(-c2nc(Nc3ccc4[nH]ncc4c3)c3cc(OCCCN4CCOCC4)c(OC)cc3n2)c1` [Example 160, N-(3-(4-(1H-indazol-5-ylamino)-7-methoxy-6-(3-morpholinopropoxy)quinazolin-2-yl)phenyl)butyramide]: the IC50 in [1] is more than 3 µM; in experiment [2], 0.05 µM.

Regarding `COCCNC(=O)COc1cccc(-c2nc(Nc3ccc4[nH]ncc4c3)c3ccccc3n2)c1` [Example 54, 2-(3-(4-(1H-indazol-5-ylamino)quinazolin-2-yl)phenoxy)-N-(2-methoxyethyl)acetamide], the IC50 is more than 10 µM in experiment [1] and 0.15 µM in experiment [2].

Regarding `C[C@@H](N)[C@H]1CC[C@H](C(=O)Nc2ccncc2)CC1` [Example Y-27632], in experiment [10], the “inhibition of ROCK2 compared with ROCK1” value is on record as “to the same extent”.
